Data published in patent US20240269139A1, “COMPOUNDS FOR TARGETED PROTEIN DEGRADATION OF KINASES” (DANA-FARBER CANCER INSTITUTE, INC., priority 2020, published 2024).
Entries after “also recorded” stand apart in the source; their conditions may differ.

Molecular target: protein kinases (human kinome)
Assay type: cell-based
Conditions: for Kinase hits: kinases significantly downregulated vs DMSO (fold change cutoff −1.25, P-value<0.01), ≤8 h, 0.1-5 μM degrader, 7 cell lines; for Total no. kinase hits: number of degraded kinases per library compound; for kinases the bifunctional compound degrades: as stated for the structure in the embodiments; for logFC: BTK (Q06187-2), experiment wp055; for logFC of BTK (Q06187-2): Experiment wp055
Description: Although development of targeted protein degraders requires a POI binder, among already-liganded proteins such as kinases, it was hypothesized that different targets would have a different propensity for current approaches to degrader-mediated destruction, which was termed ‘degradability’. […] It was rationalized that the probability of identifying the same kinase as a false positive in multiple treatments is low, therefore this analysis served to also assess the robustness of our data and subsequent interpretations. […] Overall, 62 protein kinases were degraded in more than 10 independent treatments, and remarkably, 9 of these (CDK4, AURKA, FER, WEE1, BLK. LIMK2, CDK6, GAK, LIMK1) were each degraded in at least 40 of the 154 independent treatments, emphasizing their predisposition to induced degradation (FIG. 1G; Appendix I).
Next, the frequency of degradation assessment was corrected for over-representation of molecules in the full dataset by omitting replicate profiling of compounds under different experimental conditions, to remove any bias. […] Unsurprisingly, the top degradable kinases mirror those from the previous analysis (CDK4, AURKA, FER, WEE1, BLK), confirming that in sufficiently large datasets, even with over-representation of certain molecules, frequency of degradation is a good measure of general tractability.

CC(C)S(=O)(=O)c1ccccc1Nc1nc(Nc2ccc(N3CCN(CCOCCOCCNC(=O)CNc4cccc5c4C(=O)N(C4CCC(=O)NC4=O)C5=O)CC3)cc2)ncc1Cl (centres unmarked) [TL12-186]
Kinase hits: AAK1, ABL1, AURKA, AURKB, BLK, BMPR1A, BUB1, BUB1B, CDK10, CDK12, CDK13, CDK17, CDK2, CDK4, CDK5, CDK6, CDK7, CDK9, COQ8A, COQ8B, CSNK1D, CSNK1E,; also recorded: EEF2K, FER, FLT1, GAK, HASPIN, IRAK4, ITK, LCK, LIMK1, LIMK2, MAP3K11, MAP3K21, MAP4K1, MAP4K3, MAPK6, MAPK7, MARK2, MARK4, NEK2, NLK, PDK2, PLK4, PRAG1, PRKAA1, PTK2B, RIOK2, RPS6KA1, SIK2, SRC, STK10, STK17A, STK35, TEC, TNK2, ULK1, ULK3, WEE1, YES1 | Total no. kinase hits: 60

Cc1cnc(Nc2ccc(N3CCN(CCOCCOCCNC(=O)COc4cccc5c4C(=O)N(C4CCC(=O)NC4=O)C5=O)CC3)cc2)nc1Nc1cccc(S(=O)(=O)NC(C)(C)C)c1 (centres unmarked) [JWG-118]
kinases the bifunctional compound degrades: AAK1, AURKA, BMP2K, GAK, and WEE1 | Kinase hits: AAK1, AURKA, BMP2K, GAK, WEE1 | Total no. kinase hits: 5

CC(C)S(=O)(=O)c1ccccc1Nc1nc(Nc2ccc(N3CCN(CCOCCOCCOCCNC(=O)CNc4cccc5c4C(=O)N(C4CCC(=O)NC4=O)C5=O)CC3)cc2)ncc1Cl (centres unmarked) [SK-3-87, N-(2-(2-(2-(2-(4-(4-((5-chloro-4-((2-(isopropylsulfonyl)phenyl)amino)pyrimidin-2-yl)amino)phenyl)piperazin-1-yl)ethoxy)ethoxy)ethoxy)ethyl)-2-((2-(2,6-dioxopiperidin-3-yl)-1,3-dioxoisoindolin-4-yl)amino)acetamide]
kinases the bifunctional compound degrades: AAK1, AURKA, BLK, CDK12, CDK17, CDK2, CDK5, CDK7, CDK9, FER, ITK, LCK, LIMK2, PTK2B, and WEE1 | Kinase hits: AAK1, AURKA, BLK, CDK12, CDK17, CDK2, CDK5, CDK7, CDK9, FER, ITK, LCK, LIMK2, PTK2B, WEE1 | Total no. kinase hits: 15

O=C1CCC(N2C(=O)c3cccc(NCCOCCOCCOCCOCCC(=O)Nc4cccc(CN5CCC(NC(=O)c6[nH]ncc6NC(=O)c6c(Cl)cccc6Cl)CC5)c4)c3C2=O)C(=O)N1 (centres unmarked) [FMF-04-147-1]
kinases the bifunctional compound degrades: CDK11A, CDK9, CLK1, GSK3A, GSK3B, PIK3CG, and SGK3 | Kinase hits: CDK11A, CDK9, CLK1, GSK3A, GSK3B, PIK3CG, SGK3 | Total no. kinase hits: 7

Cc1ncsc1-c1ccc([C@H](C)NC(=O)[C@@H]2C[C@@H](O)CN2C(=O)[C@@H](NC(=O)CCCCCCc2ccc(Nc3ncc4c(n3)-c3ccccc3NC(=O)N4)cc2)C(C)(C)C)cc1 [JWG-148]
kinases the bifunctional compound degrades: ABL2, EPHB2, SIK2, and TYK2 | Kinase hits: ABL2, EPHB2, SIK2, TYK2 | Total no. kinase hits: 4

Cc1c(NC(=O)c2ccc(C(C)(C)C)cc2)cccc1-c1cn(C)c(=O)c(Nc2ccc(C(=O)N3CCN(CCCCCCNC(=O)COc4cccc5c4C(=O)N(C4CCC(=O)NC4=O)C5=O)CC3)cc2)n1 (centres unmarked) [DD.04.118]
logFC: −3.263 | logFC of BTK (Q06187-2): −3.263

CC(=O)c1c(C)c2cnc(Nc3ccc(N4CCN(CCCCNC(=O)CNc5cccc6c5C(=O)N(C5CCC(=O)NC5=O)C6=O)CC4)cn3)nc2n(C2CCCC2)c1=O (centres unmarked) [BSJ-01-147]
Kinase hits: CDK4, CDK6, WEE1 | Total no. kinase hits: 3

NC(=O)c1c(F)cccc1Nc1nc(Nc2ccc(S(=O)(=O)NCCOCCOCCOCCOCCNc3cccc4c3C(=O)N(C3CCC(=O)NC3=O)C4=O)cc2)ncc1Br (centres unmarked) [TMX-02-138]
Kinase hits: AAKI, AURKA, AURKB, CDK1, CDK12, CDK16, CDK17, CDK2, CDK5, CDK7, CDK9, CLK1, FER, GSK3A, GSK3B, IRAK3, MAPSK11, MAPK8, MAPK9, NUAK1, PRKAA1, PRKAA2, PTK2B, RPS6KA1, RPS6KA3, STK33, STK38, TTK | Total no. kinase hits: 28

CN(C)C(=O)c1cc2cnc(Nc3ccc(N4CCN(CCCCNC(=O)COc5cccc6c5C(=O)N(C5CCC(=O)NC5=O)C6=O)CC4)cn3)nc2n1C1CCCC1 (centres unmarked) [BSJ-04-132]
Kinase hits: BCKDK, CDK4, CDK6, COQ8A, PDK1, PDK2, PDK3, | Total no. kinase hits: 3

NC(=O)c1c(F)cccc1Nc1nc(NC2CCN(S(=O)(=O)CCNC(=O)CCCCCCCCOc3cccc4c3C(=O)N(C3CCC(=O)NC3=O)C4=O)CC2)ncc1Br (centres unmarked) [TMX-01-160-1]
Kinase hits: AURKA, CDK1, CDK12, CDK16, CDK17, CDK2, CDK4, CDK5, CDK6, CDK7, CDK9, MAPK10, MAPK8, MAPK9, RPS6KA1 | Total no. kinase hits: 15

CC(=O)c1c(C)c2cnc(Nc3ccc(N4CCN(CC(=O)NCCOCCOCCOCCNc5cccc6c5C(=O)N(C5CCC(=O)NC5=O)C6=O)CC4)cn3)nc2n(C2CCCC2)c1=O (centres unmarked) [YKL-06-102]
Kinase hits: CDK4, CDK6, WEE1 | Total no. kinase hits: 3

CC(=O)c1c(C)c2cnc(Nc3ccc(N4CCN(CCOCCOCCOCCNC(=O)COc5cccc6c5C(=O)N(C5CCC(=O)NC5=O)C6=O)CC4)cn3)nc2n(C2CCCC2)c1=O (centres unmarked) [BSJ-03-123]
Kinase hits: BCKDK, CDK4, CDK6, COQ8A, PDK1, PDK2, PDK3, WEE1 | Total no. kinase hits: 8

Cc1c(NC(=O)c2ccc(C(C)(C)C)cc2)cccc1-c1cn(C)c(=O)c(Nc2ccc(C(=O)N3CCN(CCCCCCNC(=O)CNc4cccc5c4C(=O)N(C4CCC(=O)NC4=O)C5=O)CC3)cc2)n1 (centres unmarked) [DD.03.171]
logFC: −3.077 | logFC of BTK (Q06187-2): −3.077

O=C(CCCCCCNC(=O)COc1cccc2c1C(=O)N(C1CCC(=O)NC1=O)C2=O)NCCOc1ccc(Nc2ncc3ccc(=O)n(C4CC5CCC4C5)c3n2)cc1 (centres unmarked) [SB1-G-194]
kinases the bifunctional compound degrades: AAK1, AURKA, AURKB, CDK6, CDK9, FGR2, STK17A, and TTK | Kinase hits: AAK1, AURKA, AURKB, CDK6, CDK9, FGR2, STK17A, TTK | Total no. kinase hits: 8

Cc1ncsc1-c1ccc([C@H](C)NC(=O)[C@@H]2C[C@@H](O)CN2C(=O)[C@@H](NC(=O)CCCCCN2CCc3cc(Nc4ncc(C5CC5)c(NCCCNC(=O)C5CCC5)n4)ccc3C2)C(C)(C)C)cc1 [BSJ-05-026]
Kinase hits: AAK1, GAK, MARK2, MARK3, MARK4, RPS6KB1, SIK2, SIK3, SNRK, STKI7A, STKI7B, ULK1, WEE1 | Total no. kinase hits: 13

Cc1c(NC(=O)c2ccc(C(C)(C)C)cc2)cccc1-c1cn(C)c(=O)c(Nc2ccc(C(=O)N3CCN(CCCCCCNC(=O)COc4cccc5c4C(=O)N(C4CCC(=O)NC4=O)C5=O)CC3)cc2)n1 (centres unmarked) [DD-04-118]
Kinase hits: BTK | Total no. kinase hits: 1

Cc1ccc(NC(=O)c2cccc(C(C)(C)C#N)c2)cc1Nc1ccc2ncn(CCOCCOCCC(=O)N[C@H](C(=O)N3C[C@H](O)C[C@H]3C(=O)NCc3ccc(-c4scnc4C)cc3)C(C)(C)C)c(=O)c2c1 [DD-02-198]
kinases the bifunctional compound degrades: MAPK14 | Kinase hits: MAPK14 | Total no. kinase hits: 1

CC(C)S(=O)(=O)c1ccccc1Nc1nc(Nc2ccc(N3CCN(CCOCCOCCC(=O)NCCNc4cccc5c4CN(C4CCC(=O)NC4=O)C5=O)CC3)cc2)ncc1Cl (centres unmarked) [TL13-97, 3-(2-(2-(4-(4-((5-chloro-4-((2-(isopropylsulfonyl)phenyl)amino)pyrimidin-2-yl)amino)phenyl)piperazin-1-yl)ethoxy)ethoxy)-N-(2-((2-(2,6-dioxopiperidin-3-yl)-1-1722 oxoisoindolin-4-yl)amino)ethyl)propenamide]
kinases the bifunctional compound degrades: AAK1, ABL2, AURKA, AURKB, BLK, BUB1B, CDK13, CDK17, CDK2, CDK4, CDK5. CDK6. CDK7. CDK9. FER, ITK, LCK, LIMK1, LIMK2, MAP3K11, MARK4, PLK4, PRKAA1, RPS6KA1, SRC. STK10, STK38, TEC, TNK2, ULK1, ULK3, and WEE1 | Kinase hits: AAK1, ABL2, AURKA, AURKB, BLK, BUB1B, CDK13, CDK17, CDK2, CDK4, CDK5, CDK6, CDK7, CDK9, FER, ITK, LCK, LIMK1, LIMK2, MAP3K11, MARK4, PLK4, PRKAA1, RPS6KA1, SRC, STK10, STK38, TEC, TNK2, ULK1, ULK3, WEE1 | Total no. kinase hits: 32

Cc1cnc(Nc2ccc(N3CCN(CCOCCOCCC(=O)N[C@H](C(=O)N4C[C@H](O)C[C@H]4C(=O)N[C@@H](C)c4ccc(-c5scnc5C)cc4)C(C)(C)C)CC3)cc2)nc1Nc1cccc(S(=O)(=O)NC(C)(C)C)c1 [JWG-122]
kinases the bifunctional compound degrades: AAK1 and GAK | Kinase hits: AAK1, GAK | Total no. kinase hits: 2

Cc1cc(Nc2ncc(Br)c(Nc3cccc(F)c3C(N)=O)n2)ccc1S(=O)(=O)NCCOCCOCCOCCOCCNc1cccc2c1C(=O)N(C1CCC(=O)NC1=O)C2=O (centres unmarked) [TMX-02-174]
Kinase hits: AAK1, AURKA, AURKB, CDK1, CDK12, CDK16, CDK17, CDK2, CDK5, CDK7, CDK9, CLK1, FER, GSK3A, GSK3B, IRAK3, MAP3K11, MAPK8, MAPK9, NEK1, NEK3, NEK4, NEK9, NUAK1, PRKAA1, PRKAA2, PTK2, PTK2B, RPS6KA1, RPS6KA3, RPS6KA4, STK33, STK35, STK38, TBK1, TEC, TTK, WEE1 | Total no. kinase hits: 37

CC(C)S(=O)(=O)c1ccccc1Nc1nc(Nc2ccc(N3CCN(CCOCCOCCOCCNC(=O)CNc4ccc5c(c4)C(=O)N(C4CCC(=O)NC4=O)C5=O)CC3)cc2)ncc1Cl (centres unmarked) [SK-3-89]
kinases the bifunctional compound degrades: AAK1, AURKA, BLK, CDK12, CDK17, CDK2, CDK4, CDK5, CDK6, CDK7, CDK9, FER, ITK, LCK, LIMK2, PTK2B, STK10, and WEE1 | Kinase hits: AAK1, AURKA, BLK, CDK12, CDK17, CDK2, CDK4, CDK5, CDK6, CDK7, CDK9, FER, ITK, LCK, LIMK2, PTK2B, STK10, WEE1 | Total no. kinase hits: 18

COc1cc(N2CCN(CCOCCOCCNC(=O)CNc3cccc4c3C(=O)N(C3CCC(=O)NC3=O)C4=O)CC2)ccc1Nc1ncc(Cl)c(Nc2ccccc2S(=O)(=O)C(C)C)n1 (centres unmarked) [TL13-12]
Kinase hits: AURKA, FER, PRK2 | Total no. kinase hits: 3
